From US20100093804A1, “NOVEL CRYSTALLINE FORM OF LANSOPRAZOLE” (HETERO DRUGS LIMITED, priority 2006, published 2010)
Like-named read-outs stand apart in the source and are kept apart here.

Tests used:
[1] = solid-solid transition to form A; cited from earlier work
[2] = cited from earlier work
[3] = stability of the crystalline form over time; format: physicochemical

## Cc1c(OCC(F)(F)F)ccnc1C[S+]([O-])c1nc2ccccc2[nH]1 (stereo not shown) [crystalline lansoprazole form B, 2-[[[3-Methyl-4-(2,2,2-trifluoro-ethoxy)-2-pyridinyl]methyl]sulfinyl]-1H-benzimidazole]
[1]
  stability of crystalline form: unstable

## Cc1c(OCC(F)(F)F)ccnc1C[S+]([O-])c1nc2ccccc2[nH]1 (stereo not shown) [lansoprazole crystalline form II, 2-[[[3-Methyl-4-(2,2,2-trifluoro-ethoxy)-2-pyridinyl]methyl]sulfinyl]-1H-benzimidazole]
[2]; after some period of sample storage at higher temperatures
  stability of crystalline form on storage: converted to stable crystalline form I
[2]; at temperatures below 0° C.
  stability of crystalline form: stable

## Cc1c(OCC(F)(F)F)ccnc1C[S+]([O-])c1nc2ccccc2[nH]1 (stereo not shown) [lansoprazole form III, 2-[[[3-Methyl-4-(2,2,2-trifluoro-ethoxy)-2-pyridinyl]methyl]sulfinyl]-1H-benzimidazole]
[3]
  stability of crystalline form: stable
